Several values for one entry are separate records, joined by “and”; a condition that tells them apart may be missing. Equal values may be shown once. Read-outs that look alike come from different tables or passages of the source.
What was measured:
[1] = water solubility of the solvent used, cited from earlier work
[2] = Solvent extraction of HMD from aqueous feed (recovery, distribution coefficient, selectivity); type: physicochemical; conditions: for available free base HMD extracted: 1:1 solvent to feed ratio
Experimental: The example describes the solvent extraction of HMD from the CO2 stripped solution prepared in Example 3 above as well as extracting HMD from an aqueous solution without pH adjustment as a control for solvent performance. The following protocol was used in this example:
The pH of the aqueous feed was measured. In a 50 mL falcon tube, 20 g of solvent was mixed with 20 g of feed. This combination was further aggressively mixed in the falcon tube for 5 minutes and vortexed for 1 minute. The tube with the mixed solvent and feed was allowed to settle until phase separation was complete. The volume of the bottom, aqueous layer was recorded. A sample of the top layer was carefully pipetted out the top layer. A sample the bottom layer was also obtained and the pH of the bottom layer measured. The recovery, distribution coefficients and selectivity based on mass balance were calculated.
The extraction data for three solvents extracting HMD from water are set out in Table 4-1.

[3] = HMD/CO2 pH equilibrium under changing conditions (CO2 sparge, air sparge, heat); type: physicochemical; conditions: for pH (temp. in ° C.): 10% w/w aqueous HMD solution
Experimental: This experiment illustrates HMD/CO2 pH equilibrium under changing conditions. In this example, a 10% w/w aqueous HMD solution was prepared (70% HMD purchased from Sigma Aldrich). The HMD solution was heated to 30° C. and initial pH recorded. Next, CO2 (approximately 98% pure) was bubbled into the solution for 60 min while monitoring pH. The CO2 sparge was stopped. Air was sparged into solution for 30 min while monitoring pH. […] The pH was measured by sampling 3 mL to a falcon tube and cooling to 30° C. […] The solution was cooled to 30° C. and a final pH recorded. The measured pH values are plotted in Graphs 1-1, 1-2 and 1-3, below. It was noted that the temperature probe on pH meter was reading 44.4° C. at […]. and cooled back down to 30° C. by the end of the 60 min. […] This temperature increase can also account for the nonlinearity in FIG. 27-29 because pH decreases with increasing temperature.
Extraction should be possible at this pH. Aeration during fermentation may be able to strip off some of the dissolved CO2.

[4] = Simulated fermentation: CO2 and HMD fed into MM9 solution, pH monitored; type: physicochemical; conditions: average rate 3.31 g/L/hr
Description: This example reports the results of a simulated fermentation process. Briefly, CO2 (approximately 98% pure) and HMD (70% HMD from Sigma Aldrich) were fed into an MM9 solution that had the following composition: • 0.68% (6.8 g/L) Disodium phosphate Na2HPO4 • 0.3% (3 g/L) Monopotassium phosphate KH2PO4 • 0.15%(1.5 g/L) Ammonium chloride NH4Cl • 0.1% (1 g/L) Ammonium sulfate (NH4)2SO4 • 0.05% (0.5 g/L) Sodium chloride NaCl
The measured pH of the solution and concentration of HMD added over time are set out in FIG. 30.
This feed rate used in this example corresponds to an average rate of 3.31 g/L/hr (a reasonable production rate in an industrial fermentation process). The final titer and feed concentration of HMD was confirmed by LCMS. The HMD and CO2 reach a dynamic equilibrium around pH 8.5. As more HMD is added, more CO2 is absorbed. The simulated HMD:CO2 ratio is 1.95 for pH=8.53. […] FIGS. 31 and 32 illustrate the relative concentration of species as a function of pH for HMD and H2CO3, respectively.
At pH 8.5 (dashed, black line) the major species in solution are the diprotonated HMD and bicarbonate. A minority presence of HMD-carbamate may be present as well.

[5] = Regeneration of HMD free base from CO2-adjusted MM9 solution by air sparge and reflux; type: physicochemical; conditions: for CO2:HMD ratio: based on calculation from pH
Experimental: A 250 mL four-neck flask was fitted with a condenser, temperature probe, and air sparge needle. The system was open to air through the top of the condenser. The feed was an aqueous HMD solution in MM9 where pH was adjusted to 8.68 with CO2. The feed solution was analyzed for HMD concentration by LCMS and the pH was measured. The solution was sparged with air and refluxed at 85° C. for three hours. The resulting solution's pH was taken and the concentration of HMD measured by LCMS.
The concentration increased slightly as some water escaped through the condenser and the solution was concentrated. The fraction of HMD in free base form at pH 11.26 is 57%.

[6] = HMD in DI water, [HMD] = 835 mM, 20 g solvent : 20 g feed
[7] = HMD in DI water, [HMD] = 835 mM, bottom aqueous layer after extraction, 20 g solvent : 20 g feed
[8] = HMD in deionized (DI) water, [HMD] = 835 mM, aqueous feed before extraction

CCCCCCO [1-hexanol]
% Solubility ([1]; Table 4-1): 0.59% | % Solubility ([1]; Table 4-2): 0.59%

OC1CCCCC1 [Cyclohexanol]
% water in extract [2, 6]: 16.65% | pH after [2, 7]: 12.36 | pH before [2, 8]: 12.70

NCCCCCCN [HMD, Hexamethylenediamine]
pH restored by air and heat ([3]; 10% w/w aqueous HMD solution after 60 min CO2 bubbling, then air sparge and heating to 80-88° C, pH read at 30° C): 11.02 | pH (temp. in ° C.) ([3]; Heated to 80° C. for 30 min. w/ sparge, sample cooled to 30 °C): 10.49 | pH (temp. in ° C.) ([3]; Heated to 88° C. for 15 min. w/ sparge, pH at 22.5 °C): 11.02 | pH (temp. in ° C.) ([3]; Heated to 88° C. for 15 min. w/ sparge, pH at 30 °C): 10.76 | pH (temp. in ° C.) ([3]; House air sparge for 30 min. at 30° C., pH at 30 °C): 8.23 | pH (temp. in ° C.) ([3]; Initial conditions, pH at 30 °C): 12.25 | pH (temp. in ° C.) ([3]; Sat open to air over night, pH at 20.6 °C): 10.78 | pH (temp. in ° C.) ([3]; Sparge CO2 for 60 min. at 30° C., pH at 30 °C): 7.96 | pH of dynamic equilibrium of HMD and CO2 [4]: ~8.5 | pH ([5]; Feed stream: HMD in MM9, pH adjusted with CO2, @ 21.7° C.): 8.68 @ | CO2:HMD ratio ([5]; Feed stream): 1.91 | pH ([5]; Product stream after air sparge and reflux at 85° C. for three hours, @ 23.5° C.): 11.26 @ | CO2:HMD ratio ([5]; Product stream): 0.277 | fraction of HMD in free base form ([5]; at pH 11.26): 57% | pH after CO2 stripping ([5]; feed pH 8.68 in MM9, air sparge, reflux at 85° C for three hours): 11.26 | available free base HMD extracted ([2]; solvent 1-hexanol): approximately 43% | available free base HMD extracted ([2]; solvent hexane): about 7% | free base HMD available, based on the pH before extraction ([2]; stripped solution from Example 3): 60%

CCCCCC [Hexane]
% water in extract [2]: <0.001% | pH after [2]: 12.54 and 11.42 | pH before [2]: 12.55 and 11.48 | % Solubility ([1]; Table 4-1): 9.4 × 10^−4%

CC(C)CCO [Isopentanol]
% water in extract [2, 6]: 9.08% | pH after [2, 7]: 12.16 | pH before [2, 8]: 12.70 | % Solubility ([1]; Table 4-1): 2.8%
